According to patent US20030068322A1, “Methods of antibody-directed enzyme-prodrug therapy” (IMMUNOMEDICS, INC., priority 1988, published 2003):

Key:
[1] = versus CPT-11; cited from earlier work
[2] = target: T1, human beta-D-glucuronidase (Homo sapiens, UniProt P08236); settings: Arcamone, Cancer Res. 45:5995 (1985); cited from earlier work
T1 sequence (P08236 23-651): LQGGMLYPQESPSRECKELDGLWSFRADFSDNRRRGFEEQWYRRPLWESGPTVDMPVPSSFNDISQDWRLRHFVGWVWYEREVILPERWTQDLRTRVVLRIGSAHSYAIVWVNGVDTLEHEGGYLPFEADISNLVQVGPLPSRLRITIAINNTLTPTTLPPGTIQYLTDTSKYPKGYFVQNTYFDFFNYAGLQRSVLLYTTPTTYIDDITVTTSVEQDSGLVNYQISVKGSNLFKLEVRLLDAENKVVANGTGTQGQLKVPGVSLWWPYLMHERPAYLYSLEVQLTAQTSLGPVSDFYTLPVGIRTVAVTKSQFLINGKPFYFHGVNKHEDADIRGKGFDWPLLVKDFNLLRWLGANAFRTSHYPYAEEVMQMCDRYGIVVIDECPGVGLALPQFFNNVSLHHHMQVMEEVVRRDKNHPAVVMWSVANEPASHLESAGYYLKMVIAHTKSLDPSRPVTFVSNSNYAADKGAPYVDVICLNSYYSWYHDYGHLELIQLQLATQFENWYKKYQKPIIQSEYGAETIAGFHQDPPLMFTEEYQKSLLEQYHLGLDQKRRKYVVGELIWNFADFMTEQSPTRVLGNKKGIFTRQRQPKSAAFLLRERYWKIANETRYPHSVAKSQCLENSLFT

lymphoma = assay: Therapy of lymphoma in a human patient; assay type: in vivo; settings: 10 mg i.v. on each of 4 days after anti-lymphoma IgG-glucuronidase conjugate
Experimental: A human patient suffering from lymphoma is infused intravenously with a sterile, pyrogen-free PBS solution containing 5 mg of an anti-lymphoma IgG-glucuronidase conjugate prepared according to the example above, and labeled with I-131. […] The patient is then infused intravenously with a sterile, pyrogen-free PBS solution containing 10 mg of epirubicin glucuronide, prepared according to the example above, on each of the next 4 days.

## CCc1c2c(nc3ccc(O)cc13)-c1cc3c(c(=O)n1C2)COC(=O)[C@]3(O)CC [SN-38]
[1]
  toxicity relative to CPT-11: at least one hundred-fold more toxic

## COc1cccc2c1C(=O)c1c(O)c3c(c(O)c1C2=O)C[C@@](O)(C(=O)CO)C[C@@H]3O[C@H]1C[C@H](N)[C@@H](O)[C@H](C)O1 [epirubicin]
[2]
  substrate for human beta-D-glucuronidase: has been shown to be a substrate

## COc1cccc2c1C(=O)c1c(O)c3c(c(O)c1C2=O)C[C@@](O)(C(=O)CO)C[C@@H]3O[C@H]1C[C@H](N)[C@@H](O[C@@H]2O[C@H](C(=O)O)[C@@H](O)[C@H](O)[C@H]2O)[C@H](C)O1 [epirubicin glucuronide]
lymphoma
  reduction in lymphoma by radioimmunodetection: significant reduction in the lymphoma
